Columns and labels:
CCRF-CEM = CCRF-CEM (Leukemia), 48 hours, SRB
HL-60(TB) = HL-60(TB) (Leukemia), 48 hours, SRB
K-562 = K-562 (Leukemia), 48 hours, SRB
RPMI-8226 = RPMI-8226 (Leukemia), 48 hours, SRB
SR = SR (Leukemia), 48 hours, SRB
NCI-H226 = NCI-H226 (Non-Small Cell Lung Cancer), 48 hours, SRB
HT29 = HT29 (Colon Cancer), 48 hours, SRB
SW-620 = SW-620 (Colon Cancer), 48 hours, SRB
SF-539 = SF-539 (CNS Cancer), 48 hours, SRB
SNB-19 = SNB-19 (CNS Cancer), 48 hours, SRB
SNB-75 = SNB-75 (CNS Cancer), 48 hours, SRB
U251 = U251 (CNS Cancer), 48 hours, SRB
MALME-3M = MALME-3M (Melanoma), 48 hours, SRB
M14 = M14 (Melanoma), 48 hours, SRB
SK-MEL-2 = SK-MEL-2 (Melanoma), 48 hours, SRB
UACC-257 = UACC-257 (Melanoma), 48 hours, SRB
UACC62 = UACC62 (Melanoma), 48 hours, SRB
IGROV1 = IGROV1 (Ovarian Cancer), 48 hours, SRB
OVCAR-3 = OVCAR-3 (Ovarian Cancer), 48 hours, SRB
OVCAR-8 = OVCAR-8 (Ovarian Cancer), 48 hours, SRB
786-0 = 786-0 (Renal Cancer), 48 hours, SRB
A498 = A498 (Renal Cancer), 48 hours, SRB
ACHN = ACHN (Renal Cancer), 48 hours, SRB
RXF 393 = RXF 393 (Renal Cancer), 48 hours, SRB
SN12C = SN12C (Renal Cancer), 48 hours, SRB
UO-31 = UO-31 (Renal Cancer), 48 hours, SRB
PC-3 = PC-3 (Prostate Cancer), 48 hours, SRB
DU-145 = DU-145 (Prostate Cancer), 48 hours, SRB
MCF7 = MCF7 (Breast Cancer), 48 hours, SRB
MDA-MB-231/ATCC = MDA-MB-231/ATCC (Breast Cancer), 48 hours, SRB
HS578T = HS578T (Breast Cancer), 48 hours, SRB
BT-549 = BT-549 (Breast Cancer), 48 hours, SRB

SMILES: [2H]On1c2c(c3ccc4c(c31)C=CC(C)(C)O4)C(OC([2H])([2H])[2H])[C@@]13NC(=O)C4(CCCN4C1=O)CC3C2(C)C (some centres unmarked) [Deuterated Methanol Adduct]
- TGI (CCRF-CEM): 0.704 µM
- TGI (HL-60(TB)): 1.45 µM
- TGI (K-562): 3.07 µM
- TGI (RPMI-8226): 0.298 µM
- TGI (SR): 1.25 µM
- TGI (NCI-H226): 1.7 µM
- TGI (HT29): 3.68 µM
- TGI (SW-620): 1.54 µM
- TGI (SF-539): 1.46 µM
- TGI (SNB-19): 2.31 µM
- TGI (SNB-75): 1.27 µM
- TGI (U251): 1.37 µM
- TGI (MALME-3M): 1.56 µM
- TGI (M14): 2.5 µM
- TGI (SK-MEL-2): 2.28 µM
- TGI (UACC-257): 1.89 µM
- TGI (UACC62): 1.92 µM
- TGI (IGROV1): 2.04 µM
- TGI (OVCAR-3): 1.81 µM
- TGI (OVCAR-8): 2.17 µM
- TGI (786-0): 2.46 µM
- TGI (A498): 2.22 µM
- TGI (ACHN): 2.53 µM
- TGI (RXF 393): 0.625 µM
- TGI (SN12C): 2.32 µM
- TGI (UO-31): 1.84 µM
- TGI (PC-3): 2.02 µM
- TGI (DU-145): 3.12 µM
- TGI (MCF7): 1.33 µM
- TGI (MDA-MB-231/ATCC): 1.83 µM
- TGI (HS578T): 2.17 µM
- TGI (BT-549): 1.99 µM
